# Assay results taken from patent US10106833B2, “Methods and compounds for identifying glycosyltransferase inhibitors” (priority 2012, dated 2018).
# Key:
# [1] = biological target: T1, E. coli PBP1b (Escherichia coli, UniProt P02919); test: Displacement of probe compound S16 (CMG121) from E. coli PBP1b, decrease in fluorescence polarization on addition of test compound; type: binding
# Experimental: (§1) Solution containing 10 mM TRIS (pH=8.0), 100 mM NaCl, 0.3% DMSO, 75 nM S16, and bacterial glycosyltransferase (E. coli PBP1b c=2.2 uM; E. faecalis PBP2a c=5.1 uM; S. aureus SgtB c=2.1 uM) were allowed to equilibrate for 30 min at 0° C. and then serially diluted (1/1 dilutions) into buffer containing 10 mM TRIS (pH=8.0), 100 mM NaCl, 0.3% DMSO, and 75 nM S16. After equilibration at 0° C. for 30 min the 20 μL of the solutions were transferred to a black 384 well plate (Corning NBS Low Volume) and fluorescence polarization (FP, ex: 480 nm; em: 535 nm) was measured using a Perkin Elmer Envision microplate reader. Each series was performed in duplicate and the data was plotted FP vs. concentration of enzyme. For determination of the KD, the average FP values were converted to fluorescence anisotropy and fitted to the standard equation describing an equilibrium L+E<->LE (L=ligand; E=enzyme; LE=ligand enzyme complex) using GraphPad Prism 5.0 (GraphPad Software, Inc.; La Jolla, Calif., USA). The KD values for probe S16 are: E. coli PBP1b: 0.15; E. faecalis PBP2a: 0.38; […]
# (§2) For determination of the Ki, the average FP values were first converted to fluorescence anisotropy.
# [2] = biological target: E. faecalis PBP2a (Enterococcus faecalis, UniProt Q837Z4); test: Displacement of probe compound S16 (CMG121) from E. faecalis PBP2a, decrease in fluorescence polarization on addition of test compound; type: binding; conditions: read-out: E. faecalis PBP2a Kd; FIG. 2; FP displacement; 75 nM probe S16, 0.38-0.46 uM PBP2a, 10 mM TRIS pH 8.0, 100 mM NaCl, 0° C. 30 min
# Experimental: as §1, §2
# [3] = biological target: S. aureus SgtB (Staphylococcus aureus, UniProt Q99T05); test: Displacement of probe compound S16 (CMG121) from S. aureus SgtB, decrease in fluorescence polarization on addition of test compound; type: binding; conditions: read-out: S. aureus SgtB Kd; FIG. 2; FP displacement; 75 nM probe S16, 0.2-0.25 uM SgtB, 10 mM TRIS pH 8.0, 100 mM NaCl, 0° C. 30 min
# Experimental: Solution containing 10 mM TRIS (pH=8.0), 100 mM NaCl, 0.3% DMSO, 75 nM S16, and bacterial glycosyltransferase (E. coli PBP1b c=2.2 uM; E. faecalis PBP2a c=5.1 uM; S. aureus SgtB c=2.1 uM) were allowed to equilibrate for 30 min at 0° C. and then serially diluted (1/1 dilutions) into buffer containing 10 mM TRIS (pH=8.0), 100 mM NaCl, 0.3% DMSO, and 75 nM S16. After equilibration at 0° C. for 30 min the 20 μL of the solutions were transferred to a black 384 well plate (Corning NBS Low Volume) and fluorescence polarization (FP, ex: 480 nm; em: 535 nm) was measured using a Perkin Elmer Envision microplate reader. Each series was performed in duplicate and the data was plotted FP vs. concentration of enzyme. For determination of the KD, the average FP values were converted to fluorescence anisotropy and fitted to the standard equation describing an equilibrium L+E<->LE (L=ligand; E=enzyme; LE=ligand enzyme complex) using GraphPad Prism 5.0 (GraphPad Software, Inc.; La Jolla, Calif., USA). The KD values for probe S16 are: E. coli PBP1b: 0.15; E. faecalis PBP2a: 0.38;
# S. aureus SgtB: 0.18. Probe CMG121 (75 nM) is displaced from S. aureus SgtB (0.2 μM) by addition of either moenomycin or the weaker PGT inhibitor disaccharide S15, as evidenced by reduction of FP. […]
# as §2
# [4] = test system: bacterial glycosyltransferase (E. coli PBP1b; E. faecalis PBP2a; S. aureus SgtB); test: Assay validation: displacement of probe compound from enzyme (fluorescence polarization); type: binding; conditions: 75 nM probe S16; test compound up to ca. 200 uM
# Experimental: (§3) To equilibrated solutions containing 10 mM TRIS (pH=8.0), 100 mM NaCl, 75 nM S16, and bacterial glycosyltransferase (E. coli PBP1b c=0.1-0.15 uM; E. faecalis PBP2a c=0.38-0.46 uM; S. aureus SgtB c=0.2-0.25 uM) was added the test compound in DMSO or DMSO/H2O solutions (stock solutions were typically 2 mM) to obtain a final concentration of test compound of ca. 200 uM. These solutions were serially diluted (1/1 dilutions) into buffer containing 10 mM TRIS (pH=8.0), 100 mM NaCl, 75 nM Probe CMG121, and bacterial glycosyl transferase (E. coli PBP1b c=0.1-0.15 uM; E. faecalis PBP2a c=0.38-0.46 uM; S. aureus SgtB c=0.2-0.25 uM). After equilibration at 0° C. for 30 min the 20 μL of the solutions were transferred to a black 384 well plate (Corning NBS Low Volume) and fluorescence polarization (FP, ex: 480 nm; em: 535 nm) was measured using a Perkin Elmer Envision microplate reader. Each series was performed in duplicate and the data was plotted FP vs. concentration of test compound.
# [5] = biological target: S. aureus SgtB; test: Fluorescence polarization probe competition (Ki); type: binding; conditions: probe CMG121 75 nM, S. aureus SgtB 0.2 μM; read-out: Ki (displacement of probe CMG121)
# Experimental: as §3, with “Each series was performed in duplicate and the data was plotted FP vs. concentration of test compound.” left out
# A black 384 well plate (Corning NBS Low Volume No. 3820) was filled (10 μL per well) with an equilibrated solution containing 10 mM TRIS (pH=8.0), 100 mM NaCl, 75 nM disaccharide S15, and 1.0-1.5 μM S. aureus SgtB (depending on protein batch). […] The plate was incubated at 4° C. for 30 min and read with an Perkin Elmer EnVision microplate reader as described above. […]
# For determination of the Ki, the average FP values were first converted to fluorescence anisotropy. […]
# [6] = biological target: T1, E. coli PBP1b; test: In vitro PGT inhibition, PG formation from 14C-lipid II; type: biochemical; conditions: E. coli PBP1b 50 nM, lipid II 4 μM
# Experimental: (§4) A solutions of S. aureus SgtB (50 nM) in 12.5 mM HEPES (pH=7.5), 2 mM MnCl2, and 250 μM tween-80 (8 μL) were incubated with DMSO solutions containing the inhibitor of interest in different concentrations (1 μL) for 20 min. Then ^14C-labelled lipid II (1 μL, 40 μM, ^14C/^12C 1/3) was added and the polymerization reaction was allowed to proceed for 25 min at room temperature. The reaction was quenched with 10 μL of a solution of moenomycin (1 μM) in 10% triton-X reduced and the remaining lipid II was separated from peptidoglycan (PG) using paper strip chromatography (isobutyric acid/1M NH4OH 5/3). Using a scintillation counter the ratio of radioactivity in PG to total radioactivity was determined and plotted vs. inhibitor concentration. IC50s were determined using the curve fitting program GraphPad Prism 5.0 (GraphPad Software, Inc.; La Jolla, Calif., USA).
# Solutions of the PGT (50 nM) in 50 mM HEPES (pH=7.5), 10 mM CaCl2, and […] PenG (8 μL) were incubated with DMSO solutions containing the inhibitor of interest in different concentrations (1 μL) for 20 min. Then ^14C-labelled lipid II (1 μL, 40 μM, ^14C/^12C 1/3) was added and the polymerization reaction was allowed to proceed for 25 min at room temperature. The reaction was quenched and processed as described above.
# [7] = test system: Gram-positive organisms; conditions: against Gram-positive organisms; cited from earlier work
# [8] = biological target: T2, S. aureus SgtB (Staphylococcus aureus, UniProt Q93Q23); test: In vitro PGT inhibition, PG formation from 14C-lipid II; type: biochemical; conditions: S. aureus SgtB 50 nM, lipid II 4 μM
# T2 sequence (Q93Q23 1-269): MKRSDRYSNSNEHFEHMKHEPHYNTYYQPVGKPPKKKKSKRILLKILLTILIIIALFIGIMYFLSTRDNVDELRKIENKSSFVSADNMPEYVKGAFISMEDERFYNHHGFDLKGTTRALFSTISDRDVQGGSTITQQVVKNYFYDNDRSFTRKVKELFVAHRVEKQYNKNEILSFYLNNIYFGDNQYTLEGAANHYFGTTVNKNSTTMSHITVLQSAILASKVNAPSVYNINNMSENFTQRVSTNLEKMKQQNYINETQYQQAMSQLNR
# Experimental: as §4
# T1 sequence (P02919 whole entry): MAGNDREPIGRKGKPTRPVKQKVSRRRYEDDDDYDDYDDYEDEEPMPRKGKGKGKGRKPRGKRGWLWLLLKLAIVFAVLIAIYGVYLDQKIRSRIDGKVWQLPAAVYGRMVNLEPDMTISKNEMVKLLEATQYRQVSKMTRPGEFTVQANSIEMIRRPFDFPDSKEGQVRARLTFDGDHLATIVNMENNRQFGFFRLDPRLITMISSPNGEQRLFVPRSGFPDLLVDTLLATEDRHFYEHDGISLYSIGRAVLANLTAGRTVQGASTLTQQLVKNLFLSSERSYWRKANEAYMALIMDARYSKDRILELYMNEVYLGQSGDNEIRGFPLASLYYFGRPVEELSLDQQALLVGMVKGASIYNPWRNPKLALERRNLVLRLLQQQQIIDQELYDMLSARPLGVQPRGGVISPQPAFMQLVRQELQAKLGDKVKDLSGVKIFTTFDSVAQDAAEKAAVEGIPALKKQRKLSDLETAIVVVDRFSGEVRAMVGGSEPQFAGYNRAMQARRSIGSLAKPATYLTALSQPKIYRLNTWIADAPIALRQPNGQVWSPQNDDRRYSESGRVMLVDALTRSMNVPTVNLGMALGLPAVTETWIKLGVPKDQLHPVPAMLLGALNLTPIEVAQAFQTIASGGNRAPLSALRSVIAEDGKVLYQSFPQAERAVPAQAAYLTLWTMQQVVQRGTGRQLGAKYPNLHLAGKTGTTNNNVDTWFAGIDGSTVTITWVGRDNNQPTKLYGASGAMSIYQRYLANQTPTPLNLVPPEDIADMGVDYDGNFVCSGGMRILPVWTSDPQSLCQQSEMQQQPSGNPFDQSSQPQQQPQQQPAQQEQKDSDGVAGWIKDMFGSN
# Sequence of E. faecalis PBP2a (Q837Z4 entry or part of it): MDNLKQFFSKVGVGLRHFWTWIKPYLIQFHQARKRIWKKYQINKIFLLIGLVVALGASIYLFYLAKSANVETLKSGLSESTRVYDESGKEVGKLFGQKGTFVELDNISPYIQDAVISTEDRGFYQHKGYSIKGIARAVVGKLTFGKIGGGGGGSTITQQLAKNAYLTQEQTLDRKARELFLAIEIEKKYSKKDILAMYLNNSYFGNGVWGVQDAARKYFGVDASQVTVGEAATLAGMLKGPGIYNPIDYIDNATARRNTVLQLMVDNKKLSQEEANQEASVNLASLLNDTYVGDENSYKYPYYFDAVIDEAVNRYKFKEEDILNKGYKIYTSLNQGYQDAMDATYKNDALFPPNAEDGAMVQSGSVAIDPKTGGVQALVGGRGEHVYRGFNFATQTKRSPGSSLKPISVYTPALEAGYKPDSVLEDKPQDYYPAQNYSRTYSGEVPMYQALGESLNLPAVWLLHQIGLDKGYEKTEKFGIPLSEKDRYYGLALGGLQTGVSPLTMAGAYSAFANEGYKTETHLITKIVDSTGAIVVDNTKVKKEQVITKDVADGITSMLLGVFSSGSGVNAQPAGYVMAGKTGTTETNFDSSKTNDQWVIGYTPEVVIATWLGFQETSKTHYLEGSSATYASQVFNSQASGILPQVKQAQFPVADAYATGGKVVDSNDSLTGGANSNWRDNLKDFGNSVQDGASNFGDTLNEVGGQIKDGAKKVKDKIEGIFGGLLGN
molecule,measurement,setting,value
"CC(=O)N[C@H]1[C@H](O[C@H]2[C@H](O)[C@@H](NC(C)=O)[C@H](O[C@H]3[C@@H](OP(=O)(O)OC[C@@H](OC/C=C(/C)CCC=C(C)C)C(=O)O)O[C@H](C(N)=O)[C@@](C)(O)[C@@H]3OC(N)=O)O[C@@H]2CO[C@@H]2O[C@H](CO)[C@@H](O)[C@H](O)[C@H]2O)O[C@H](C)[C@@H](O[C@@H]2O[C@H](C(=O)NC3=C(O)CCC3=O)[C@H](O)[C@H](O)[C@H]2O)[C@@H]1O [neryl-Moenomycin A (n-MmA), neryl-moenomycin A]",IC50,"[1]; FIG. 6, printed on the figure showing FP displacement of the probe by neryl-moenomycin A",200 nM
C=C(C/C=C(\C)CCC=C(C)C)CCC(C)(C)/C=C/CC/C(C)=C\CO[C@H](COP(=O)(O)O[C@H]1O[C@H](C(N)=O)[C@@](C)(O)[C@H](OC(N)=O)[C@H]1O[C@@H]1O[C@H](CO[C@@H]2O[C@H](CO)[C@@H](O)[C@H](O)[C@H]2O)[C@@H](O[C@@H]2O[C@H](C)[C@@H](O[C@@H]3O[C@H](C(=O)NC4=C(O)CCC4=O)[C@H](O)[C@H](O)[C@H]3O)[C@H](O)[C@H]2NC(C)=O)[C@H](O)[C@H]1NC(C)=O)C(=O)O [Moenomycin A],Kd,[2],950 nM
same,Kd,[3],1100 nM
same,Kd,"[1]; read-out: E. coli PBP1b Kd, FIG. 2, FP displacement, 75 nM probe S16, 0.1-0.15 uM PBP1b, 10 mM TRIS pH 8.0, 100 mM NaCl, 0° C. 30 min",3900 nM
CCCCCCCCCCCCO[C@@H]1O[C@H](CO)[C@@H](O[C@H]2O[C@H](CO)[C@@H](O)[C@H](O)[C@H]2O)[C@H](O)[C@H]1O [dodecyl-β-D-maltoside],Displacement of the probe compound (change in fluorescence polarization) on addition of test compound,[4],does not displace
nC20-moenomycin A,Displacement of the probe compound (change in fluorescence polarization) on addition of test compound,[4],decrease in fluorescence polarization
ZE-farnesyl-moenomycin A,Displacement of the probe compound (change in fluorescence polarization) on addition of test compound,[4],decrease in fluorescence polarization
CCCCCCCCCCCCCC(=O)OC[C@H](COP(=O)(O)OCC(O)COP(=O)(O)OC[C@@H](COC(=O)CCCCCCCCCCCCC)OC(=O)CCCCCCCCCCCCC)OC(=O)CCCCCCCCCCCCC (stereo partly drawn) [tetramystryl cardiolipin],Displacement of the probe compound (change in fluorescence polarization) on addition of test compound,[4],partial displacement
C=C(C/C=C(\C)CCC=C(C)C)CCC(C)(C)/C=C/CC/C(C)=C\CO[C@H](COP(=O)(O)O[C@H]1O[C@H](C(N)=O)[C@@](C)(O)[C@H](OC(N)=O)[C@H]1O[C@@H]1O[C@H](CO[C@@H]2O[C@H](CO)[C@@H](O)[C@H](O)[C@H]2O)[C@@H](O[C@@H]2O[C@H](C)[C@@H](O[C@@H]3O[C@H](C(=O)NC4=C(O)CCC4=O)[C@H](O)[C@H](O)[C@H]3O)[C@H](O)[C@H]2NC(C)=O)[C@H](O)[C@H]1NC(C)=O)C(=O)O [moenomycin A],Ki,[5],640 nM
same,IC50,[6],12 nM
same,Potency relative to vancomycin,[7],10-1000 times
same,IC50,[8],6 nM
same,Displacement of the probe compound (change in fluorescence polarization) on addition of test compound,[4],decrease in fluorescence polarization
CC(=O)N[C@H]1[C@H](O[C@H]2[C@H](O)[C@@H](NC(C)=O)[C@H](O[C@H]3[C@@H](OP(=O)(O)OC[C@@H](OC/C=C(/C)CCC=C(C)C)C(=O)O)O[C@H](C(N)=O)[C@@](C)(O)[C@@H]3OC(N)=O)O[C@@H]2CO[C@@H]2O[C@H](CO)[C@@H](O)[C@H](O)[C@H]2O)O[C@H](C)[C@@H](O[C@@H]2O[C@H](C(=O)NC3=C(O)CCC3=O)[C@H](O)[C@H](O)[C@H]2O)[C@@H]1O [neryl-moenomycin A],Displacement of the probe compound (change in fluorescence polarization) on addition of test compound,[4],decrease in fluorescence polarization
nC12-moenomycin A,Displacement of the probe compound (change in fluorescence polarization) on addition of test compound,[4],decrease in fluorescence polarization
